Assay results as given in PMC10581189, “Cesin, a short natural variant of nisin, displays potent antimicrobial activity against major pathogens despite lacking two C-terminal macrocycles” (Microbiology Spectrum, 2023).
Values after ≈ are worked out from the molar mass of the structure shown. Where two headings read alike, the source gives them in different places. Ends that are not written are not given here.

Legend:
[1] = tested on: Listeria monocytogenes LK132
[2] = tested on: Listeria monocytogenes TT82E
[3] = tested on: Lactococcus lactis MG1363
[4] = tested on: Staphylococcus aureus LMG10147
[5] = tested on: Enterococcus faecium LMG11423
[6] = tested on: nisin resistance protein (NSR); settings: 30 µL 0.1 mg/mL peptide, agar well, L. lactis NZ9000 (pNSR) vs L. lactis NZ9000 (pEmpty); three biological replicates; Fig. 8A
[7] = Thermal stability (residual antimicrobial activity); assay type: physicochemical
Protocol: (§1) An overnight culture of test strains was added at 0.1% (vol/vol) into melted GM17 agar at 45°C and poured in plates. After agar solidification, wells of 8 mm were bored and filled with 30 µL of the lantibiotic solution. When necessary, the lantibiotic was activated with 5 µL of nisP added directly into the well. Peptides were resuspended in 0.05% aqueous acetic acid solution and the cesin amount was determined using the NanoDrop (Thermo Scientific) calibrated with the extinction coefficient predicted by ExPASy (http://web.expasy.org/protparam/). The agar plates were incubated at 30°C overnight, after which, the zones of inhibition were measured. Zone diameters were measured in millimeters and recorded as area of the zone (πr^2) minus the area of the well (πr^2) in millimeters. Where necessary, cesin was compared with nisin and nisin(1–22). Assays were performed in triplicate.

[8] = tested on: Enterococcus faecalis LMG16216 (VRE)
[9] = tested on: Bacillus cereus CH-85
[10] = target: proteinase K (Parengyodontium album, UniProt P06873); test: Stability against proteinase K (residual antimicrobial activity); settings: 1 mg/mL proteolytic enzyme (pH 7.2), relative antimicrobial activity against L. lactis MG1363, agar well; three biological replicates; Fig. 8B
[11] = tested on: Enterococcus faecium LMG16003 (VRE)
[12] = tested on: Staphylococcus aureus LMG15975 (MRSA)
[13] = tested on: Listeria monocytogenes LMG10470
[14] = tested on: sheep erythrocytes; test: Hemolytic activity assay; assay type: cell-based; settings: sheep erythrocytes 2% (vol/vol) in PBS, up to 64 µg/mL, 37°C for 40 min, absorbance 420 nm relative to Triton X-100, triplicate; Fig. 9
Protocol: The hemolytic activity of cesin and nisin was determined as previously described ([65]). Briefly, fresh sheep blood (Sigma-Aldrich) was washed with 0.1 M PBS (pH 7.4; Sigma-Aldrich) three times to remove plasma (500 × g for 5 min), and then the erythrocytes were collected and diluted 1:50 in PBS. The lantibiotics were then added at final concentrations of 64, 32, 16, 8, 4, 2, and 0 µg/mL in PBS to wells containing 2% (vol/vol) washed erythrocytes. The cells were incubated at 37°C for 40 min, then centrifuged for 5 min at 3,100 g. The supernatants were transferred to a 96-well plate, and the absorbance was measured at a wavelength of 420 nm with a Synergy HT microplate reader (BioTek, Lucerne, Switzerland). The absorbance relative to the positive control, which was treated with 0.1% Triton X-100, was defined as the percentage of hemolysis. The analysis was carried out in triplicate.

[15] = tested on: E. faecium; test: Agar well diffusion assay of cesin analogs; assay type: cell-based, Enterococcus faecium; settings: triplicate, Fig. 5B, S1
Protocol: as §1

[16] = tested on: L. lactis MG1363; test: Agar well diffusion assay of cesin analogs; assay type: cell-based, Lactococcus lactis; settings: for antimicrobial activity compared to cesin: L. lactis MG1363, 30°C overnight, triplicate, Fig. 5B, 6B, S1
Protocol: as §1

Chain of proteinase K (P06873 106-384): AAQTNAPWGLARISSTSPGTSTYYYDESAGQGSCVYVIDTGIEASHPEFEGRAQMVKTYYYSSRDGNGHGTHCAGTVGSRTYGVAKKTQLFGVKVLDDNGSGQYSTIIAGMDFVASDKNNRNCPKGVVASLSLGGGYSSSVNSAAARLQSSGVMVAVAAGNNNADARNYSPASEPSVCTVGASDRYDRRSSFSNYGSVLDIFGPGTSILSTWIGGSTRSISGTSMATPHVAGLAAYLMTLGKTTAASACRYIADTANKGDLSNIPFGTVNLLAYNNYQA

| Molecule | MIC [1] [µg/mL] | MIC [2] [µg/mL] | MIC [3] [µg/mL] | MIC [4] [µg/mL] | MIC [5] [µg/mL] | resistance to the cleavage action of NSR [6] | MIC [8] [µg/mL] | MIC [9] [µg/mL] | MIC [11] [µg/mL] | MIC [12] [µg/mL] | MIC [13] [µg/mL] | antimicrobial activity compared to cesin [15] | antimicrobial activity compared to cesin [16] | other results |
| --- | --- | --- | --- | --- | --- | --- | --- | --- | --- | --- | --- | --- | --- | --- |
| C=C1NC(=O)[C@H](Cc2c[nH]c3ccccc23)NC(=O)C(NC(=O)C(=CC)NC(=O)[C@@H](N)[C@@H](C)CC)CSC[C@@H](C(=O)NC2C(=O)N[C@@H](C)C(=O)NCC(=O)N[C@H](C(=O)N[C@H](C(=O)NC3C(=O)NCC(=O)N[C@@H](CCCNC(=N)N)C(=O)N[C@@H]([C@@H](C)CC)C(=O)N[C@@H](CCSC)C(=O)NCC(=O)N[C@H](C(=O)N[C@@H](CC(N)=O)C(=O)N[C@@H](CCCCN)C(=O)O)CSC3C)[C@@H](C)CC)CSC2C)NC(=O)[C@H](CC(C)C)NC1=O (stereo partly shown) [Cesin] | 10.25 (≈ 4.82 µM) | 5.13 (≈ 2.41 µM) | 0.08 (≈ 0.0376 µM) | 5.13 (≈ 2.41 µM) | 5.13 (≈ 2.41 µM) | fully resistant | 5.13 (≈ 2.41 µM) | 20.50 (≈ 9.64 µM) | 10.25 (≈ 4.82 µM) | 5.13 (≈ 2.41 µM) | 2.56 (≈ 1.2 µM) |  |  | thermal stability, time stable [7]: stable for up to 4 h; stability against proteinase K [10]: more resistant to proteinase K |
| C=C1NC(=O)[C@H]([C@@H](C)CC)NC(=O)C(NC(=O)C(=CC)NC(=O)[C@@H](N)[C@@H](C)CC)CSC[C@@H](C(=O)NC2C(=O)N3CCC[C@H]3C(=O)NCC(=O)N[C@H](C(=O)N[C@@H](CCCCN)C(=O)NC3C(=O)NCC(=O)N[C@@H](C)C(=O)N[C@@H](CC(C)C)C(=O)N[C@@H](CCSC)C(=O)NCC(=O)N[C@H](C(=O)N[C@@H](CC(N)=O)C(=O)N[C@@H](CCSC)C(=O)N[C@@H](CCCCN)C(=O)O)CSC3C)CSC2C)NC(=O)[C@H](CC(C)C)NC1=O (stereo partly shown) [Nisin(1–22), reference compound] | 41.00 (≈ 19.2 µM) | 10.25 (≈ 4.79 µM) | 1.28 (≈ 0.598 µM) | 20.50 (≈ 9.58 µM) | 41.00 (≈ 19.2 µM) |  | >41.00 | >41.00 | >41.00 | 20.50 (≈ 9.58 µM) | 41.00 (≈ 19.2 µM) |  |  |  |
| C=C(NC(=O)[C@@H](NC(=O)[C@H](Cc1c[nH]cn1)NC(=O)[C@@H](NC(=O)[C@H](CO)NC(=O)[C@@H]1CSC(C)C2NC(=O)[C@H](C)NC(=O)C(NC(=O)[C@H](CCCCN)NC(=O)[C@H](CCSC)NC(=O)[C@H](CC(N)=O)NC(=O)[C@@H]3CSC(C)C(NC(=O)[C@H](CCCCN)NC(=O)[C@@H]4CSC(C)C(NC(=O)[C@@H]5CSCC(NC(=O)C(=CC)NC(=O)[C@@H](N)[C@@H](C)CC)C(=O)N[C@@H]([C@@H](C)CC)C(=O)NC(=C)C(=O)N[C@@H](CC(C)C)C(=O)N5)C(=O)N5CCC[C@H]5C(=O)NCC(=O)N4)C(=O)NCC(=O)N[C@@H](C)C(=O)N[C@@H](CC(C)C)C(=O)N[C@@H](CCSC)C(=O)NCC(=O)N3)C(C)SC[C@H](NC2=O)C(=O)N[C@@H](CC(N)=O)C(=O)N1)[C@@H](C)CC)C(C)C)C(=O)N[C@@H](CCCCN)C(=O)O (stereo partly shown) [Nisin] |  |  |  |  |  | inactivated |  |  |  |  |  |  |  | hemolysis [14]: comparable to that of nisin; thermal stability, time stable ([7]; incubated at 22°C, 55°C, 75°C, 95°C, read-out antimicrobial activity against L. lactis MG1363 (agar well), three biological replicates, Fig. 7A, B): stable for up to 4 h |
| ITSWSLCTAGCITGRIMGCNKTATCHCSIHVSK (also: bicyclic or more (positions not given here)) [cesin NK, cesin-nisin(23–34) hybrid] |  |  |  |  |  |  |  |  |  |  |  | significant loss of antimicrobial activity | significant loss of antimicrobial activity |  |
| ITSWSLCTAGCITGRIMGCNMKTATCHCSIHVSK (also: bicyclic or more (positions not given here)) [cesin NMK, cesin(1–20)-nisin(21–34) hybrid] |  |  |  |  |  |  |  |  |  |  |  | significant loss of antimicrobial activity | significant loss of antimicrobial activity | antimicrobial activity compared to cesin NK ([16]; Fig. 5B (L. lactis MG1363 and E. faecium, sentence names no strain)): significantly higher antimicrobial activity |
